Data reported in patent publication US10562842B2, “Use of polyaminoisoprenyl derivatives in antibiotic or antiseptic treatment” (UNIVERSITE D'AIX-MARSEILLE, priority 2011, dated 2020).

Tested on: Enterobacter, Salmonella and Escherichia strains
Assay: MIC ratio, several strains
Type: cell-based
Text: For reminder, the MIC ratio corresponds to the ratio of the MIC of the assessed antibiotic alone to the MIC of the same antibiotic in the presence of the tested compound (at MIC/4).

CC(C)=CCCC(C)=CCNCCCN(CCCN)CCCN (racemic) [Compound 11, {3-[Bis-(3-amino-propyl)-amino]-propyl}-(3,7-dimethyl-octa-2,6-dienyl)-amine]
sensitivity for chloramphenicol, nalidixic acid, doxycycline and oxacillin (Enterobacter Salmonella and Escherichia strains): increased the sensitivity | sensitivity to tetracycline, Enterobacter, Salmonella and E. coli strains (tetracycline, data not shown): such an increase was not observed
